According to patent US6015820A, “4-Aryl-thio-pyridin-2(1H)-ones, medicines containing them and their uses in the treatment of illnesses linked to HIV” (priority 1995, dated 2000):
Like-named read-outs stand apart in the source and are kept apart here.

Key:
[1] = cytotoxicity on non-infected cells (MTT test); type: cell-based; details: human; Table 2; non-infected CEM-SS cells, MTT, 5 days
Description: (§1) In parallel experiments, the cytotoxicity of the molecules was measured on non-infected cells, after an incubation of 5 days in the presence of these molecules, by using a […] titration (MTT test) based on the ability of the mitochondrial dehydrogenases of the living cells to reduce 3-(4,5-dimethylthiazol-2-yl)-2,5-diphenyltetrazolium bromide in formazan (Mosmann et al. J. Immunol. Methods ([…]), 65, 55-63). The concentration cytotoxic at 50% (CC50) is the concentration at which the DO540 has been reduced to half and is calculated by using the program mentioned above.

IT of recombinant HIV-1 = biological target: T1, IT of recombinant HIV-1 (Human immunodeficiency virus type 1 group M subtype B, UniProt P03369); assay: inhibition of the inverse transcriptase of recombinant HIV-1; type: biochemical
T1 construct: purify the IT enzyme of the recombinant HIV-1; made in house; host or cells: yeast cells transformed with the pAB 24/IT-4 vector
Description: Yeast cells transformed with the pAB 24/IT-4 vector were used to purify the IT enzyme of the recombinant HIV-1 as described by Sallafranque-Andreola et al. (1989 Eur. J. Biochem. 184, 364-374).
Incubation was carried out at 37° C. for 10 minutes in the presence of various matrix-primers.
a) Poly C-oligo dG: the reaction mixture contained a final volume of 0.05 ml, Tris-HCl 50 mM pH 8.0, MgCl2 5 mM, dithiothreitol 4 mM, 0.48 A260 /ml of poly C-oligo dG (5:1), 1.0 μCi of [^3 H]dGTP (28 Ci/mmole), dGTP 2 μM, KCl 80 mM, 1 μg of bovine serum albumin and IT 20-50 nM.
b) Poly A-oligo dT: the same conditions as in a), except that 0.48 A260 /ml of poly A-oligo dT (5:1), 0.5 μCi of [^3 H]dTTP (46 Ci/mmole), dTTP 20 μM were used.
The reactions were stopped by adding in the cold 1 ml of 10% trichloroacetic acid plus sodium pyrophosphate 0.1 M. The precipitates were filtered through nitrocellulose membranes, washed with 2% trichloroacetic acid, dried and counted in a PPO/POPOP/toluene scintillation mixture.
All the compounds were dissolved in dimethyl#sulphoxide (DMSO). The test samples were prepared in the presence of the same final concentration of DMSO. IC50 is the concentration required to inhibit the activity of the IT of the recombinant HIV-1 by 50%.

[2] = tested on: HIV-1 resistant to Nevirapine (N119); assay: microbe, parasite or virus in culture; type: cell-based; details: for IC50: Human immunodeficiency virus 1, CEM-SS, read-out: IC50, strain resistant to Nevirapine; for SI (selectivity index): Table 3, strain resistant to Nevirapine
Description: The effects of the compounds were evaluated on the replication of HIV-1 (see Table 2) on CEM-SS cells (cell lines of the lymphocytic lineage) strongly infected with HIV-1 LAI as described by Moog et al. (Antiviral Research (1994), 24, 275-288). The CEM-SS and the HIV-1 resistant to Nevirapine (N119) carrying a point mutation at codon 181 of the IT, were supplied respectively by P. NARA and D. RICHMAN through the intermediary of the AIDS Research and Reference Reagent Program, Division of AIDS, NIAID, NIH (USA) (Catalogue references : No. 776 and No. 1392).
(§2) The virus production was measured by quantifying the activity of the inverse transcriptase associated with viral particles released into the culture supernatant. In short, cells were infected with 100 TCID50 for 30 minutes; after adsorption of the virus, unbound particles were removed by two washings and the cells were cultivated in the presence of different concentrations of the compounds tested for 5 days before determining the viral production. The concentration inhibiting 50% of the viral multiplication (IC50) came from the computer plot of the median effect of the dose effect results (Chou et al. Elsevier Science Publishers, Cambridge U.K. (1985), 19-28).

HIV-1 LAI = assay: anti-HIV-1 activity: replication of HIV-1 LAI on CEM-SS cells; type: cell-based; details: Table 2, HIV-1 LAI, CEM-SS cells; for IC50: Human immunodeficiency virus 1, 120 h, 5 days, read-out: IC50, anti-HIV-1 activity
Description: The CEM-SS and the HIV-1 resistant to Nevirapine (N119) carrying a point mutation at codon 181 of the IT, were supplied respectively by P. NARA and D. RICHMAN through the intermediary of the AIDS Research and Reference Reagent Program, Division of AIDS, NIAID, NIH (USA) (Catalogue references : No. 776 and No. 1392).
as §2

CEM-SS cells = assay: cytotoxicity on non-infected cells (MTT test); type: cell-based; details: MTT, 5 days
Description: as §1

isolated virion HIV-1LAI = assay: infectivity of the isolated virion after treatment with inhibitors (HT4LacZ cells); type: cell-based
Description: H9 cells chronically infected with HIV-1LAI (10^8 /ml) were cocultivated with MT4 cells (10^8 /ml) for 48 hours in an RMPI medium supplemented by 10% of calf foetal serum (CFS). The cells were then removed by centrifugation and then the supernatant liquid was filtered (0.45 μm) to remove residual cells and cell debris.
After having been incubated with the various inhibitors, the viral supernatants (200 μl) were deposited in the filtering part of a VectaSpin tube (WHATMAN) fitted with an ANAPORE membrane of porosity 0.02 μm. For 10 minutes they were subjected to centrifugation, the acceleration of which reached 6000 g at the filtering membrane. The viral residuums thereby obtained (10-15 μl ) were washed 3 times under the same conditions with 500 μl of RPMI then restored to their initial volumes with RPMI containing 10% of CFS.
The HT4LacZ-1 cells were kept in a DMEM medium (glucose 4.5 g/l) supplemented with 10% of calf foetal serum in the presence of Gentamycin (50 mg/l). These cells stemmed from Hela cells in which had been cloned, on the one hand the gene coding for the human CD4 so as to render them susceptible to infection by the HIV (Chesebro and Wehrly, 1988, J. Virol., 62, 3779-3788), and on the other hand the gene for β-Galactosidase which, placed under the dependent of the LTR of the HIV-1 served as a marker for the viral infection (Rocancourt et al. (1990) J. Virol. 1990 64-6, 2660-2688). When the virus infects such cells after its integration into the cellular genome, the production of the regulatory protein TAT activates the LTR of the HIV. The result is an activation of the gene of β-Galactosidase which leads to its production in the intracellular medium and more particularly in the nucleus. It is this protein that serves as a marker of the infection.
The evening of day 0, the HT4LacZ-1 cells were diluted at the rate of 75000 cells per ml of medium. 100 μl of this suspension was then distributed over a flat bottomed plate with 96 wells and was cultivated overnight at 37° C. (5% of CO2).
The morning of day 1, the supernatant liquid was removed by aspiration. Each well was then complemented with 200 μl of the viral supernatant dilutions to be tested. Each dilution was made in a DMEM medium (glucose 4.5 g/l) supplemented with 10% of CFS. The plates were then placed in an environment at 37° C. in the presence of 5% of CO2.
After 48 hours of culture, the supernatant liquid was aspirated, then each well was washed 3 times in PBS before being complemented with 200 μl of developing buffer (Tris-HCl 50 mM pH=8.5, ONPG 5 mg/ml β-mercapto-ethanol 7 μl/ml Triton×100 0.05%). After 4 hours of incubation at 37° C., the optical density of each well was measured.
The concentration of each of the inhibitors of the IT of the HIV-1 was adjusted to 50 mM in DMSO. The later dilutions were carried out on RPMI 1640. 2 μl of suitable dilutions of each of these inhibitors were added to 198 μl of a freshly unfrozen viral suspension. After 3 hours of incubation at ambient temperature, these suspensions were filtered on 0.02 μ VecraSpin tubes, then washed 3 times with 500 μl of RPMI 1640. The viral residuums were then adjusted to 200 μL with the culture medium (RPMI-10% CFS), then tested with regard to their infectivity on HT4LacZ cells.

SMILES	CC50 at 120 h [1] [µM]	IC50 (IT of recombinant HIV-1) [µM]	IC50 [2] [µM]	SI (selectivity index) [2]	IC50 (HIV-1 LAI) [µM]	SI (selectivity index) (HIV-1 LAI)	IC50 (IT of recombinant HIV-1; read-out: IC50, inhibition of the inverse transcriptase, Table 5, IT of recombinant HIV-1) [µM]	CC50 (CEM-SS cells; Table 2, non-infected CEM-SS cells) [µM]	CC50 (CEM-SS cells; Table 3, non-infected cells) [µM]	activity at 1 µM (isolated virion HIV-1LAI; Human immunodeficiency virus 1, 1 μM inhibitor, 3 h, 100 TCID50, compared with viral supernatant subjected to same treatments, mean of 1 to 4 experiments, read-out: Activity of the isolated virions after treatment) [%]	activity at 10 µM (isolated virion HIV-1LAI; Human immunodeficiency virus 1, 10 μM inhibitor, 3 h, 100 TCID50, compared with viral supernatant subjected to same treatments, mean of 1 to 4 experiments, read-out: Activity of the isolated virions after treatment) [%]	activity on the isolated virion (in words) (isolated virion HIV-1LAI; isolated virion)
Cc1cccc(Sc2c(C)c[nH]c(=O)c2[N+](=O)[O-])c1 [Compound 7e, 5-methyl-3-nitro-4-(3'-methylphenyl)thio-pyridin-2(1H)-one]	> 10	> 10	–	–	–	–	–	–	–	–	–	–
Cc1cccc(Sc2c(C)c[nH]c(=O)c2N)c1 [Compound 8e]	78	–	41.5	> 1	1.4	> 55	> 4	–	–	–	–	–
Cc1cc(C)cc(Sc2c([N+](=O)[O-])c(O)nc3ccccc23)c1 [Compound 7f, 3-nitro-4-(3', 5'-dimethylphenyl)-thiopuinoline-2(1H)-one]	–	–	> 10	–	3.8	> 26	–	> 100	> 10	–	–	–
CCC(=O)Nc1c(Sc2cc(C)cc(C)c2)c(C)c[nH]c1=O [Compound 11c, 5-methyl-3-propionamido-4-(3', 5'-dimethylphenyl)thio-pyridin-2(1H)-one]	> 100	> 4	–	–	41.4	> 2	–	–	–	–	–	–
CCc1cnc(O)c(N)c1Sc1cc(C)cc(C)c1 [Compound 8b, 3-amino-5-ethyl-4-(3', 5'-dimethylphenyl)thio-pyridin-2(1H)-one]	> 10	–	6.7	> 1	0.01	> 1000	–	–	> 10	–	–	–
Cc1cc(C)cc(Sc2c(C)cnc(O)c2[N+](=O)[O-])c1 [Compound 7a, 5-methyl-3-nitro-4-(3', 5'-dimethylphenyl)thiopyridin-2(1H)-one]	> 10	> 10	> 10	–	0.12	> 83	–	–	> 10	–	–	–
Cc1c(Sc2ccccc2)n(COCc2ccccc2)c(=O)[nH]c1=O [BPT, 1-benzyloxymethyl-6-(phenylthio)thymine, reference compound]	–	0.4	–	–	–	–	–	–	–	–	–	–
CCc1c(Sc2cc(C)cc(C)c2)cc(=O)[nH]c1C [Compound 16, 5-ethyl-6-methyl-4-(3', 5'-dimethylphenyl)thio-pyridin-2(1H)-one]	> 10	0.4	–	–	0.5	> 20	–	–	–	–	–	–
CCc1c(C)nc(O)c(NC(C)=O)c1Sc1cc(C)cc(C)c1 [Compound 11g, 3-acetamido-5-ethyl-6-methyl-4-(3', 5'-dimethylphenyl)thio-pyridin-2(1H)-one]	> 80	–	4.3	> 23	0.05	> 1600	–	–	> 100	–	–	–
CC(=O)Nc1c(Sc2cc(C)cc(C)c2)c(C)c[nH]c1=O [Compound 11b, 3-acetamido-5-methyl-4-(3', 5'-dimethylphenyl)thio-pyridin-2(1H)-one]	> 100	> 4	> 100	–	0.067	> 1492	–	–	> 100	–	–	–
Cc1cc(C)cc(Sc2c(C)cnc(O)c2N)c1 [Compound 8a, 3-amino-5-methyl-4-(3', 5'-dimethylphenyl)-thio-pyridin-2(1H)-one]	> 10	0.1	> 10	–	0.01	> 1000	–	–	> 10	–	–	–
Cc1cc(C)cc(Sc2c(N)c(O)nc3ccccc23)c1 [Compound 8f, 3-amino-4-(3', 5'-dimethylphenyl)-thio-quinoline-2(1H)-one]	> 9	–	6.6	> 1.5	0.25	> 36	–	–	8.2	–	–	–
CCc1cnc(O)c([N+](=O)[O-])c1Sc1cc(C)cc(C)c1 [Compound 7b, 5-ethyl-3-nitro-4-(3', 5'-dimethylphenyl)thio-pyridin-2(1H)-one]	> 10	–	6.7	> 1	–	> 111	–	–	> 10	–	–	–
Cc1c(Sc2ccccc2)n(COCCO)c(=O)[nH]c1=O [HEPT, 1-[(2-hydroxyethoxy)methyl]-6-(phenylthio)thymine]	–	> 6	–	–	–	–	–	–	–	121	141	totally inactive
